Tested on: not listed separately
Assay: Half life in rats
Assay type: ADME, organism-based
Conditions: rat, in vivo

| Structure (SMILES) | half-life [h] |
| --- | --- |
| N[C@H](C(=O)N1CCSC1)[C@H]1CC[C@H](NC(=O)c2ccc(F)c(F)c2)CC1 | 2 |
| N[C@H](C(=O)N1CCCC1)[C@H]1CC[C@H](NC(=O)OCc2ccccc2)CC1 | 4 |
| N[C@H](C(=O)N1CCCC1)[C@H]1CC[C@H](NS(=O)(=O)c2ccc(OC(F)(F)F)cc2)CC1 | 3.6 |
| N[C@H](C(=O)N1CCSC1)[C@H]1CC[C@H](NS(=O)(=O)c2ccc(OC(F)(F)F)cc2)CC1 | 4.7 |
| N[C@H](C(=O)N1CCCC1)[C@H]1CC[C@H](NS(=O)(=O)c2ccc(F)cc2F)CC1 | 1.8 |
| CN(C)C(=O)Nc1ccc(S(=O)(=O)N[C@H]2CC[C@H]([C@H](N)C(=O)N3CCCC3)CC2)cc1 | 2.4 |
| N[C@H](C(=O)N1CCCC1)[C@H]1CC[C@H](NC(=O)c2cccc3ccccc23)CC1 | 2.3 |
| N[C@H](C(=O)N1CCSC1)[C@H]1CC[C@H](NC(=O)c2cccc3ccccc23)CC1 | 1.2 |
| N[C@H](C(=O)N1CCSC1)[C@H]1CC[C@H](NC(=O)Nc2ccc(I)cc2)CC1 | 2.3 |
| N[C@H](C(=O)N1CCCC1)[C@H]1CC[C@H](NS(=O)(=O)c2ccc(NS(=O)(=O)CC(F)(F)F)cc2)CC1 | 0.1 |

Target: Dipeptidyl peptidase 4 (Homo sapiens, UniProt P27487)
Sequence (P27487 whole entry): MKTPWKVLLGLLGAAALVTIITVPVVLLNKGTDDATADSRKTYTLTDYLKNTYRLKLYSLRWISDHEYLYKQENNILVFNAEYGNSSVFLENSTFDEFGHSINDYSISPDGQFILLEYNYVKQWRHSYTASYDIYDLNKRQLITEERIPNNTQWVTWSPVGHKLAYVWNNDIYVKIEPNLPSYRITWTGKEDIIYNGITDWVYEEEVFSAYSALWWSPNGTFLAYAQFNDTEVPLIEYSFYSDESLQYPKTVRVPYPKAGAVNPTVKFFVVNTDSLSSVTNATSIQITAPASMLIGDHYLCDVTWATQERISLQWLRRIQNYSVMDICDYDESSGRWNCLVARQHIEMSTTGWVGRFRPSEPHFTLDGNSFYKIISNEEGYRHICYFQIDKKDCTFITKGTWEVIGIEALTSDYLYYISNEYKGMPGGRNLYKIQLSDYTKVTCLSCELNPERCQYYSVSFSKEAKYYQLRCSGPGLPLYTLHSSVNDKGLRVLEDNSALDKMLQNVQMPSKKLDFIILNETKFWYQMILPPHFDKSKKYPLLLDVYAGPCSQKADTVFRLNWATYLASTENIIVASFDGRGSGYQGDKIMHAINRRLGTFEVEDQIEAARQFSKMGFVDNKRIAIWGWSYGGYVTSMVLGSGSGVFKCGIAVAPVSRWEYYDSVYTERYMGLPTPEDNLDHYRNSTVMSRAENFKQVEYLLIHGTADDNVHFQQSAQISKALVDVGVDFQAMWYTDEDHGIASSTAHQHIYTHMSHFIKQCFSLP
Conditions: not given

| Structure (SMILES) | IC50 [nM] |
| --- | --- |
| N[C@H](C(=O)N1CCSC1)[C@H]1CC[C@H](NS(=O)(=O)c2ccc(I)cc2)CC1 | 23 |
| N#Cc1cccc(S(=O)(=O)N[C@H]2CC[C@H]([C@H](N)C(=O)N3CCSC3)CC2)c1 | 24 |
| CN(C)C(=O)Nc1ccc(S(=O)(=O)N[C@H]2CC[C@H]([C@H](N)C(=O)N3CCSC3)CC2)cc1 | 7.5 |
| CN(C)C(=O)Nc1ccc(S(=O)(=O)N[C@H]2CC[C@H]([C@H](N)C(=O)N3CCCC3)CC2)cc1 | 26 |
| N[C@H](C(=O)N1CCSC1)[C@H]1CC[C@H](NC(=O)Nc2ccc(F)c(F)c2)CC1 | 35 |
| N[C@H](C(=O)N1CCCC1)[C@H]1CC[C@H](NS(=O)(=O)c2ccc(F)c(F)c2F)CC1 | 98 |
| N[C@H](C(=O)N1CCSC1)[C@H]1CC[C@H](NS(=O)(=O)c2ccc3ccccc3c2)CC1 | 18 |
| N[C@H](C(=O)N1CCSC1)[C@H]1CC[C@H](NS(=O)(=O)c2ccc(F)c(F)c2F)CC1 | 24 |
| N[C@H](C(=O)N1CCCC1)[C@H]1CC[C@H](NC(=O)c2cccc3ccccc23)CC1 | 46 |
| N[C@H](C(=O)N1CCSC1)[C@H]1CC[C@H](N)CC1 | 2700 |
| N[C@H](C(=O)N1CCSC1)[C@H]1CC[C@H](NC(=O)c2ccc(Cl)c(Cl)c2)CC1 | 38 |
| N[C@H](C(=O)N1CCSC1)[C@H]1CC[C@H](NC(=O)c2ccc(I)cc2)CC1 | 33 |
| N[C@H](C(=O)N1CCSC1)[C@H]1CC[C@H](NC(=O)c2ccc3ccccc3c2)CC1 | 21 |
| N[C@H](C(=O)N1CCSC1)[C@H]1CC[C@H](NC(=O)c2cccc3ccccc23)CC1 | 15 |
| N[C@H](C(=O)N1CCSC1)[C@H]1CC[C@H](NC(=O)OCc2ccc(Cl)c(Cl)c2)CC1 | 29 |
| N[C@H](C(=O)N1CCSC1)[C@H]1CC[C@H](NC(=O)OCc2ccc3ccccc3c2)CC1 | 20 |
| N[C@H](C(=O)N1CCSC1)[C@H]1CC[C@H](NC(=O)OCc2cccc3ccccc23)CC1 | 17 |
| N[C@H](C(=O)N1CCSC1)[C@H]1CC[C@H](NC(=O)Nc2ccc(I)cc2)CC1 | 10 |
| N[C@H](C(=O)N1CCSC1)[C@H]1CC[C@H](NC(=O)Nc2ccc(Cl)c(Cl)c2)CC1 | 17 |
| N[C@H](C(=O)N1CCSC1)[C@H]1CC[C@H](NC(=O)Nc2ccc(OC(F)(F)F)cc2)CC1 | 55 |
| N[C@H](C(=O)N1CCSC1)[C@H]1CC[C@H](NC(=O)c2cnc3ccccc3c2)CC1 | 9 |

Tested on: not listed separately
Assay: Oral bioavailability (F) in dogs
Assay type: ADME, organism-based, Canis lupus familiaris
Conditions: dog, in vivo

| Structure (SMILES) | bioavailability [%] |
| --- | --- |
| N[C@H](C(=O)N1CCCC1)[C@H]1CC[C@H](NS(=O)(=O)c2ccc(F)cc2F)CC1 | 100 |

Tested on: not listed separately
Assay: Oral bioavailability in rat
Assay type: ADME, organism-based
Conditions: in vivo

| Structure (SMILES) | bioavailability [%] |
| --- | --- |
| N[C@H](C(=O)N1CCSC1)[C@H]1CC[C@H](NC(=O)c2ccc(F)c(F)c2)CC1 | 81 |
| N[C@H](C(=O)N1CCCC1)[C@H]1CC[C@H](NC(=O)OCc2ccccc2)CC1 | 52 |
| N[C@H](C(=O)N1CCCC1)[C@H]1CC[C@H](NS(=O)(=O)c2ccc(OC(F)(F)F)cc2)CC1 | 38 |
| N[C@H](C(=O)N1CCSC1)[C@H]1CC[C@H](NS(=O)(=O)c2ccc(OC(F)(F)F)cc2)CC1 | 85 |
| N[C@H](C(=O)N1CCCC1)[C@H]1CC[C@H](NS(=O)(=O)c2ccc(F)cc2F)CC1 | 36 |
| CN(C)C(=O)Nc1ccc(S(=O)(=O)N[C@H]2CC[C@H]([C@H](N)C(=O)N3CCCC3)CC2)cc1 | 1 |
| N[C@H](C(=O)N1CCCC1)[C@H]1CC[C@H](NC(=O)c2cccc3ccccc23)CC1 | 30 |
| N[C@H](C(=O)N1CCSC1)[C@H]1CC[C@H](NC(=O)c2cccc3ccccc23)CC1 | 51 |
| N[C@H](C(=O)N1CCSC1)[C@H]1CC[C@H](NC(=O)Nc2ccc(I)cc2)CC1 | 12 |
| N[C@H](C(=O)N1CCCC1)[C@H]1CC[C@H](NS(=O)(=O)c2ccc(NS(=O)(=O)CC(F)(F)F)cc2)CC1 | 0 |

Species: Mus musculus
Assay: Compound (3 mpk) was tested for reduction in glucose excursion in mice by using oral glucose tolerance test (OGTT) after 1 hour
Assay type: functional
Conditions: not given

| Structure (SMILES) | Reduction [%] |
| --- | --- |
| N[C@H](C(=O)N1CCCC1)[C@H]1CC[C@H](NS(=O)(=O)c2ccc(F)cc2F)CC1 | 36 |

Tested on: not listed separately
Assay: Plasma clearance in rats
Assay type: ADME, organism-based
Conditions: rat, read-out: Clp

| Structure (SMILES) | clearance [mL/min/kg] |
| --- | --- |
| N[C@H](C(=O)N1CCSC1)[C@H]1CC[C@H](NC(=O)c2ccc(F)c(F)c2)CC1 | 30 |
| N[C@H](C(=O)N1CCCC1)[C@H]1CC[C@H](NC(=O)OCc2ccccc2)CC1 | 28 |
| N[C@H](C(=O)N1CCCC1)[C@H]1CC[C@H](NS(=O)(=O)c2ccc(OC(F)(F)F)cc2)CC1 | 31 |
| N[C@H](C(=O)N1CCSC1)[C@H]1CC[C@H](NS(=O)(=O)c2ccc(OC(F)(F)F)cc2)CC1 | 21 |
| N[C@H](C(=O)N1CCCC1)[C@H]1CC[C@H](NS(=O)(=O)c2ccc(F)cc2F)CC1 | 53 |
| CN(C)C(=O)Nc1ccc(S(=O)(=O)N[C@H]2CC[C@H]([C@H](N)C(=O)N3CCCC3)CC2)cc1 | 21 |
| N[C@H](C(=O)N1CCCC1)[C@H]1CC[C@H](NC(=O)c2cccc3ccccc23)CC1 | 13 |
| N[C@H](C(=O)N1CCSC1)[C@H]1CC[C@H](NC(=O)c2cccc3ccccc23)CC1 | 22 |
| N[C@H](C(=O)N1CCSC1)[C@H]1CC[C@H](NC(=O)Nc2ccc(I)cc2)CC1 | 74 |
| N[C@H](C(=O)N1CCCC1)[C@H]1CC[C@H](NS(=O)(=O)c2ccc(NS(=O)(=O)CC(F)(F)F)cc2)CC1 | 95 |

Tested on: not listed separately
Assay: Clearance in dogs
Assay type: ADME, organism-based, Canis lupus familiaris
Conditions: dog, in vivo

| Structure (SMILES) | clearance [mL/min/kg] |
| --- | --- |
| N[C@H](C(=O)N1CCCC1)[C@H]1CC[C@H](NS(=O)(=O)c2ccc(F)cc2F)CC1 | 14 |

Target: Dipeptidyl peptidase 2 (Homo sapiens, UniProt Q9UHL4)
Assay: Inhibitory activity against quiescent cell prolyl peptidase (QPP).
Conditions: not given

| Structure (SMILES) | IC50 [nM] |
| --- | --- |
| N[C@H](C(=O)N1CCSC1)[C@H]1CC[C@H](NS(=O)(=O)c2ccc(I)cc2)CC1 | 280 |
| N#Cc1cccc(S(=O)(=O)N[C@H]2CC[C@H]([C@H](N)C(=O)N3CCSC3)CC2)c1 | 820 |
| CN(C)C(=O)Nc1ccc(S(=O)(=O)N[C@H]2CC[C@H]([C@H](N)C(=O)N3CCSC3)CC2)cc1 | 2000 |
| CN(C)C(=O)Nc1ccc(S(=O)(=O)N[C@H]2CC[C@H]([C@H](N)C(=O)N3CCCC3)CC2)cc1 | 12000 |
| N[C@H](C(=O)N1CCSC1)[C@H]1CC[C@H](NC(=O)Nc2ccc(F)c(F)c2)CC1 | 380 |
| N[C@H](C(=O)N1CCCC1)[C@H]1CC[C@H](NS(=O)(=O)c2ccc(F)c(F)c2F)CC1 | 8200 |
| N[C@H](C(=O)N1CCSC1)[C@H]1CC[C@H](NS(=O)(=O)c2ccc3ccccc3c2)CC1 | 170 |
| N[C@H](C(=O)N1CCSC1)[C@H]1CC[C@H](NS(=O)(=O)c2ccc(F)c(F)c2F)CC1 | 960 |
| N[C@H](C(=O)N1CCCC1)[C@H]1CC[C@H](NC(=O)c2cccc3ccccc23)CC1 | 8600 |
| N[C@H](C(=O)N1CCSC1)[C@H]1CC[C@H](NC(=O)c2ccc(Cl)c(Cl)c2)CC1 | 230 |
| N[C@H](C(=O)N1CCSC1)[C@H]1CC[C@H](NC(=O)c2ccc(I)cc2)CC1 | 340 |
| N[C@H](C(=O)N1CCSC1)[C@H]1CC[C@H](NC(=O)c2ccc3ccccc3c2)CC1 | 230 |
| N[C@H](C(=O)N1CCSC1)[C@H]1CC[C@H](NC(=O)c2cccc3ccccc23)CC1 | 900 |
| N[C@H](C(=O)N1CCSC1)[C@H]1CC[C@H](NC(=O)OCc2ccc(Cl)c(Cl)c2)CC1 | 170 |
| N[C@H](C(=O)N1CCSC1)[C@H]1CC[C@H](NC(=O)OCc2ccc3ccccc3c2)CC1 | 200 |
| N[C@H](C(=O)N1CCSC1)[C@H]1CC[C@H](NC(=O)OCc2cccc3ccccc23)CC1 | 170 |
| N[C@H](C(=O)N1CCSC1)[C@H]1CC[C@H](NC(=O)Nc2ccc(I)cc2)CC1 | 210 |
| N[C@H](C(=O)N1CCSC1)[C@H]1CC[C@H](NC(=O)Nc2ccc(Cl)c(Cl)c2)CC1 | 170 |
| N[C@H](C(=O)N1CCSC1)[C@H]1CC[C@H](NC(=O)Nc2ccc(OC(F)(F)F)cc2)CC1 | 350 |
| N[C@H](C(=O)N1CCSC1)[C@H]1CC[C@H](NC(=O)c2cnc3ccccc3c2)CC1 | 230 |
| N[C@H](C(=O)N1CCCC1)[C@H]1CC[C@H](NS(=O)(=O)c2ccc(NS(=O)(=O)CC(F)(F)F)cc2)CC1 | 15000 |
| N#Cc1ccc(NCCNCC(=O)N2CCC[C@H]2C#N)nc1 | 6600 |

Target: Voltage-gated inwardly rectifying potassium channel KCNH2 (Homo sapiens, UniProt Q12809)
Sequence (Q12809 whole entry): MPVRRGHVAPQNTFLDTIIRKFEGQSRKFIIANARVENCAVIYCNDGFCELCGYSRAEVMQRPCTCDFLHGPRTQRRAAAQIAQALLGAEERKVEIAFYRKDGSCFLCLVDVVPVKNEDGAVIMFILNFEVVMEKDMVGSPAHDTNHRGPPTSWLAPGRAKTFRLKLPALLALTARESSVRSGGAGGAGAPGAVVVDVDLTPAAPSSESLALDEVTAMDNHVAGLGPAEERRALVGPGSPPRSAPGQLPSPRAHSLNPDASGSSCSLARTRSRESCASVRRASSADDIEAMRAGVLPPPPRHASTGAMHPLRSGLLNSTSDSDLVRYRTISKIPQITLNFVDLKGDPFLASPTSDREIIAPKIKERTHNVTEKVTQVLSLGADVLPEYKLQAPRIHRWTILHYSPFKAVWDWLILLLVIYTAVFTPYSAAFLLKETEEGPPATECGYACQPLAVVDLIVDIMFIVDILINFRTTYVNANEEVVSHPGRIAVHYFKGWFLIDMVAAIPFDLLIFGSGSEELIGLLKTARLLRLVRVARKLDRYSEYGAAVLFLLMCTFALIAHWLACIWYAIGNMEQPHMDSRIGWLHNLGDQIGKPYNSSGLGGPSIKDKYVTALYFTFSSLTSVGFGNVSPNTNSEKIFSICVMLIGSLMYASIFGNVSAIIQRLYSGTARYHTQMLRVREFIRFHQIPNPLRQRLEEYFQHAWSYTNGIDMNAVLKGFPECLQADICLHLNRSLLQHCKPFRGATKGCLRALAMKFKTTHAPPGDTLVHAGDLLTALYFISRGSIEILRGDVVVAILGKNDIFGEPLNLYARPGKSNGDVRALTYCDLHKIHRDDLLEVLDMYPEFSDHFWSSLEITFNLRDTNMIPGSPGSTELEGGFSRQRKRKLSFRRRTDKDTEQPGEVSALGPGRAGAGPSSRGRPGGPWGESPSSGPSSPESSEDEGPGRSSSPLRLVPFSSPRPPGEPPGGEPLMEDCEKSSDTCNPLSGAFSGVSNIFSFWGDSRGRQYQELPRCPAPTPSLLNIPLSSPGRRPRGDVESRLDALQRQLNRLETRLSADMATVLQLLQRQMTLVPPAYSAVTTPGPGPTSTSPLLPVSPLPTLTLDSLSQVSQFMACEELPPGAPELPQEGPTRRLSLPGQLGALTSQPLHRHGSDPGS
Assay: Binding affinity for Potassium channel HERG Kv11.1
Conditions: not given

| Structure (SMILES) | Ki [nM] |
| --- | --- |
| N[C@H](C(=O)N1CCCC1)[C@H]1CC[C@H](NC(=O)c2cccc3ccccc23)CC1 | 17000 |
| N[C@H](C(=O)N1CCSC1)[C@H]1CC[C@H](NC(=O)c2cccc3ccccc23)CC1 | 22000 |
| N[C@H](C(=O)N1CCSC1)[C@H]1CC[C@H](NC(=O)Nc2ccc(I)cc2)CC1 | 1900 |
| N[C@H](C(=O)N1CCCC1)[C@H]1CC[C@H](NS(=O)(=O)c2ccc(NS(=O)(=O)CC(F)(F)F)cc2)CC1 | > 100000 |

Tested on: not listed separately
Assay: Half life in dogs
Assay type: ADME, organism-based, Canis lupus familiaris
Conditions: dog, in vivo

| Structure (SMILES) | half-life [h] |
| --- | --- |
| N[C@H](C(=O)N1CCCC1)[C@H]1CC[C@H](NS(=O)(=O)c2ccc(F)cc2F)CC1 | 6 |

Source: ChEMBL document CHEMBL1146708, “4-Amino cyclohexylglycine analogues as potent dipeptidyl peptidase IV inhibitors” (Bioorg Med Chem Lett, 2004)
